Laboratory results as given in patent US7319103B2, “Non-imidazole tertiary amines as histamine 3 receptor inhibitors for the treatment of cognitive and sleep disorders, obesity and other CNS disorders” (Athersys, Inc., priority 2004, dated 2008).

Legend:
[1] = target: mouse H3 receptor (Mus musculus, UniProt P58406); assay: Radioligand competition binding assay, mouse H3 receptor; conditions: competition binding vs [3H]Nα-methylhistamine (~2 nM), membranes of cells expressing mouse H3 receptor
Method: (§1) Representative compounds of the present invention that were prepared by the procedures of the Examples were evaluated in binding assays against cells expressing the mouse and human H3 receptor by the following procedure.
(§2) Cells were washed with cold PBS buffer twice, scraped off the plates, and centrifuged at 1000×g for 5 minutes. Cells were resuspended in ice-cold buffer of 10 mM Tris, pH 7.4, 5 mM EDTA, protease inhibitor cocktail tablets (Roche Molecular Biochemicals) and incubated on ice for 10 minutes. The mixture was then homogenized with a dounce homogenizer or a polytron tissue grinder and centrifuged at 1000×g for 10 min at 4° C. The supernatant was centrifuged at 32,000×g for 30 min at 4° C. The membrane pellet was resuspended in a buffer of 50 mM Tris, pH 7.4 with protease inhibitor cocktail tablets and stored at −80° C. until use. Protein concentration was determined by the methods of Bradford.
(§3) Membranes were homogenized in buffer containing 50 mM Tris/HCl, 1 mM EDTA pH 7.4, and protease inhibitor cocktail tablets. Dissociation constants of radioligand (KD values) and maximum binding sites (Bmax) were determined in saturation binding experiments. Ki and IC50 were determined in competition binding assays using a fixed amount of radioligand.
(§4) Saturation binding assays were carried out in 96-well polypropylene plates in triplicate or quadruplicate. Reaction mixtures contained 100 μl of membrane suspension (˜100 μg/well), 50 μl of 4% DMSO, 50 μl of increasing amounts of [^3H]N^α-methylhistamine (final concentration of 0.01-20 nM). Nonspecific binding was defined with 10 uM clobenpropit. Competition binding assays were performed in a reaction mixture containing 100 μl of membrane suspension, 50 μl of [H]N^α-methylhistamine (final concentration of ˜2 nM), and 50 μl compounds. […] Incubations were carried out for 1.5 hours at room temperature. Reactions were terminated by rapid filtration over glass fibre GF/C filters (Perkin Elmers, MA) that had been presoaked in 0.3% PEI, using a Brandel cell harvester. The filters were washed with 500 ml of ice-cold buffer containing 50 mM Tris-HCl, pH 7.4, and were subsequently dried, impregnated with Meltilex wax scintillate (Perkin Elmers, MA) and counted with a Betaplate scintillation counter (Perkin Elmers, MA).
(§5) All data were analyzed by nonlinear least square curve fitting using Prism 4.0 software. The KD for [^3H]N^α-methylhistamine and the Bmax were derived from equation RL=RfL/(KD+L). RL is concentration of receptor-bound ligand at equilibrium, L is the free ligand concentration, Rf is the total receptor concentration. For competition binding experiments, IC50 (the concentration of compound producing 50% inhibition of specific binding) was derived from fitting to a 4-parameter logistic equation. Apparent Ki values were calculated using the Cheng-Prussof equation of Ki=IC50/(1+(L)/Kd), L is the ligand concentration. Agonist stimulation and antagonist inhibition in FLIPR were fitted to sigmoidal dose response using equation Y=Bottom+(Top-Bottom)/(1+10^((LogEC50-X))), X is the logarithm of concentration of compounds. Y is the response.

[2] = target: T1, human H3 receptor (Homo sapiens, UniProt Q9Y5N1); assay: Radioligand competition binding assay, human H3 receptor (HT1080 cell membranes); conditions: competition binding vs [3H]Nα-methylhistamine (~2 nM), membranes of HT1080 cells expressing human H3 receptor
T1 construct: Expression of this receptor was provided by utilization of the RAGE methodology; endogenous in cells; host or cells: HT1080 (human fibrosarcoma) cells, H3 expression switched on by RAGE; co-transfected with chimeric G-protein Gqαi5
T1 sequence (Q9Y5N1 whole entry): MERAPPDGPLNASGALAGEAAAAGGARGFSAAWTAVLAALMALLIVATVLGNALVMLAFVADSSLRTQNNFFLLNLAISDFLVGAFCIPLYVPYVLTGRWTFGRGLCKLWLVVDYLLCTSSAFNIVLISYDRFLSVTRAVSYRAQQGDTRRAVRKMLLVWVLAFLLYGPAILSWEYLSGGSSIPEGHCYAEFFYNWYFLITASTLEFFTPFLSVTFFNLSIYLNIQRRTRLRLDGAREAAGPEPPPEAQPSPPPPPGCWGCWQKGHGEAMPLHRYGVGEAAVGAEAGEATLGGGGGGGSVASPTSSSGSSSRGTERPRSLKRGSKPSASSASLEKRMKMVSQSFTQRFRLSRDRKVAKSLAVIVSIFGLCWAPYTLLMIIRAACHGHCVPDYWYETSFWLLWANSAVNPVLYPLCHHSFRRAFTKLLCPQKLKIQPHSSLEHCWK
Method: as §1
An HT1080 cell line was produced that expresses the human H3 receptor. Expression of this receptor was provided by utilization of the RAGE methodology (Harrington et al., 2001) Nature Biotechol. 19:440-5. This cell line was transfected with the chimeric G-protein Gqαi5 (Conklin et al., 1993) Nature 363:274-6 to facilitate assessment of receptor activation through the analysis of intercellular Ca^++ levels using a fluorescence assay. The HT1080 cells expressing human histamine H3 receptor and Gqαi5 were grown in alpha-modified MEM containing 10% FBS, 3 ug/ml puromycin, 7 ug/ml blasticidin, and 3.2 uM methotrexate at 37° C. in 5% CO2/95% atmosphere.
as §2, §3, §4, §5

Sequence of mouse H3 receptor (P58406 whole entry): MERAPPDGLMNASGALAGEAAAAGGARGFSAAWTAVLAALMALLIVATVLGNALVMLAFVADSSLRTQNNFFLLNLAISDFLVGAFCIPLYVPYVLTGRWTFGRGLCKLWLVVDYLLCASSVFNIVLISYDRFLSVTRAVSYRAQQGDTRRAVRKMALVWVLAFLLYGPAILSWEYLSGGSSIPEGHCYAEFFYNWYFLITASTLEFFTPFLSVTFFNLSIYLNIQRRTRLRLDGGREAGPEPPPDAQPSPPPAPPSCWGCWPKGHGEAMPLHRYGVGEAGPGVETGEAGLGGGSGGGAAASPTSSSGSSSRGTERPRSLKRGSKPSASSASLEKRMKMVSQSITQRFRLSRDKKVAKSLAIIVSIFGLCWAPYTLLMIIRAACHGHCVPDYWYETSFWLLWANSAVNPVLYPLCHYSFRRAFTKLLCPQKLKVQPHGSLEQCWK

Ki [1] | Ki [2] | SMILES
< 50 nM | < 50 nM | O[C@@H]1CCN(CCCOc2ccc(-c3c4c(nc5ccnn35)CCC4)cc2)C1 [1-{3-[4-(6,7-Dihydro-5H-1,4,8a-triaza-s-indacen-8-yl)-phenoxy]-propyl}-pyrrolidin-3-(R)-ol]
< 50 nM | < 50 nM | O[C@H]1CCN(CCCOc2ccc(-c3c4c(nc5ccnn35)CCC4)cc2)C1 [1-{3-[4-(6,7-Dihydro-5H-1,4,8a-triaza-s-indacen-8-yl)-phenoxy]-propyl}-pyrrolidin-3-(S)-ol]
< 500 nM | < 50 nM | c1cc2nc3c(c(-c4ccc5oc(CCN6CCCCC6)cc5c4)n2n1)CCC3 [8-[2-(2-Piperidin-1-yl-ethyl)-benzofuran-5-yl]-6,7-dihydro-5H-1,4,8a-triaza-s-indacene]
< 500 nM | < 50 nM | c1cc2nc3c(c(-c4ccc5oc(CCN6CCCC6)cc5c4)n2n1)CCC3 [8-[2-(2-Pyrrolidin-1-yl-ethyl)-benzofuran-5-yl]-6,7-dihydro-5H-1,4,8a-triaza-s-indacene]
< 500 nM | < 50 nM | c1cc2nc3c(c(-c4ccc(OCCCN5CCOCC5)cc4)n2n1)CCC3 [8-[4-(3-Morpholin-4-yl-propoxy)-phenyl]-6,7-dihydro-5H-1,4,8a-triaza-s-indacene]
< 50 nM | < 50 nM | c1cc2nc3c(c(-c4ccc(OCCCN5CCCCC5)cc4)n2n1)CCC3 [8-[4-(3-Piperidin-1-yl-propoxy)-phenyl]-6,7-dihydro-5H-1,4,8a-triaza-s-indacene]
< 50 nM | < 50 nM | c1cc2nc3c(c(-c4ccc(OCCCN5CCCC5)cc4)n2n1)CCC3 [8-[4-(3-Pyrrolidin-1-yl-propoxy)-phenyl]-6,7-dihydro-5H-1,4,8a-triaza-s-indacene]
< 50 nM | < 50 nM | CC1CCCN1CCCOc1ccc(-c2c3c(nc4ccnn24)CCC3)cc1 (centres unmarked) [8-{4-[3-(2-Methyl-pyrrolidin-1-yl)-propoxy]-phenyl}-6,7-dihydro-5H-1,4,8a-triaza-s-indacene]
< 5000 nM | < 500 nM | c1cc2nc3c(c(-c4ccc5oc(CCN6CCCC6)cc5c4)n2n1)CCCC3 [9-[2-(2-Pyrrolidin-1-yl-ethyl)-benzofuran-5-yl]-5,6,7,8-tetrahydro-pyrazolo[5,1-b]quinazoline]
< 50 nM | < 50 nM | c1cc2nc3c(c(-c4ccc(OCCCN5CCOCC5)cc4)n2n1)CCCC3 [9-[4-(3-Morpholin-4-yl-propoxy)-phenyl]-5,6,7,8-tetrahydro-pyrazolo[5,1-b]quinazoline]
< 50 nM | < 50 nM | c1cc2nc3c(c(-c4ccc(OCCCN5CCCCC5)cc4)n2n1)CCCC3 [9-[4-(3-Piperidin-1-yl-propoxy)-phenyl]-5,6,7,8-tetrahydro-pyrazolo[5,1-b]quinazoline]
< 500 nM | < 50 nM | c1ccc2c(-c3ccc(OCCCN4CCCC4)cc3)c3c(nc2c1)CCCC3 [9-[4-(3-Pyrrolidin-1-yl-propoxy)-phenyl]-1,2,3,4-tetrahydro-acridine]
< 50 nM | < 50 nM | c1cc2nc3c(c(-c4ccc(OCCCN5CCCC5)cc4)n2n1)CCCC3 [9-[4-(3-Pyrrolidin-1-yl-propoxy)-phenyl]-5,6,7,8-tetrahydro-pyrazolo[5,1-b]quinazoline]
< 50 nM | < 50 nM | C[C@@H]1CCCN1CCCOc1ccc(-c2c3c(nc4ccnn24)CCCC3)cc1 [9-{4-[3-(2-(R)-Methyl-pyrrolidin-1-yl)-propoxy]-phenyl}-5,6,7,8-tetrahydro-pyrazolo[5,1-b]quinazoline]
< 5000 nM | – | CC1CCCN1CCCOc1cccc(-c2c3c(nc4ccnn24)CCCCC3)c1 (centres unmarked) [10-{3-[3-(2-Methyl-pyrrolidin-1-yl)-propoxy]-phenyl}-6,7,8,9-tetrahydro-5H-1,4,10a-triaza-cyclohepta[f]indene]
< 5000 nM | – | COCCNCCCOc1ccc(-c2c3c(nc4ccnn24)CCCCC3)cc1 [(2-Methoxy-ethyl)-{3-[4-(6,7,8,9-tetrahydro-5H-1,4,10a-triaza-cyclohepta[f]inden-10-yl)-phenoxy]-propyl}-amine]

Second part, the compound before the results:

SMILES | Ki [1] | Ki [2]
O[C@H]1CCN(CCc2cc3cc(-c4c5c(nc6ccnn46)CCC5)ccc3o2)C1 [1-{2-[5-(6,7-Dihydro-5H-1,4,8a-triaza-s-indacen-8-yl)-benzofuran-2-yl]-ethyl}-pyrrolidin-3-(S)-ol] | < 500 nM | < 50 nM
c1cc2nc3c(c(-c4ccc5oc(CCN6CCOCC6)cc5c4)n2n1)CCC3 [8-[2-(2-Morpholin-4-yl-ethyl)-benzofuran-5-yl]-6,7-dihydro-5H-1,4,8a-triaza-s-indacene] | < 500 nM | < 50 nM
C[C@@H]1CCCN1CCc1cc2cc(-c3c4c(nc5ccnn35)CCC4)ccc2o1 [8-{2-[2-(2-(R)-Methyl-pyrrolidin-1-yl)-ethyl]-benzofuran-5-yl}-6,7-dihydro-5H-1,4,8a-triaza-s-indacene] | < 50 nM | < 50 nM
COC[C@@H]1CCCN1CCc1cc2cc(-c3c4c(nc5ccnn35)CCC4)ccc2o1 [8-{2-[2-(2-(S)-Methoxymethyl-pyrrolidin-1-yl)-ethyl]-benzofuran-5-yl}-6,7-dihydro-5H-1,4,8a-triaza-s-indacene] | < 50 nM | < 50 nM
CC1CCCN1CCc1cc2cc(-c3c4c(nc5ccnn35)CCC4)ccc2o1 (centres unmarked) [8-{2-[2-(2-Methyl-pyrrolidin-1-yl)-ethyl]-benzofuran-5-yl}-6,7-dihydro-5H-1,4,8a-triaza-s-indacene] | < 50 nM | < 50 nM
COC[C@H]1CCCN1CCc1cc2cc(-c3c4c(nc5ccnn35)CCC4)ccc2o1 [8-{2-[2-(R)-(2-Methoxymethyl-pyrrolidin-1-yl)-ethyl]-benzofuran-5-yl}-6,7-dihydro-5H-1,4,8a-triaza-s-indacene] | < 500 nM | < 500 nM
C[C@@H]1CCCN1CCCOc1ccc(-c2c3c(nc4ccnn24)CCC3)cc1Cl [8-{3-Chloro-4-[3-(2-(R)-methyl-pyrrolidin-1-yl)-propoxy]-phenyl}-6,7-dihydro-5H-1,4,8a-triaza-s-indacene] | < 50 nM | < 50 nM
CC1CCCN1CCCOc1ccc(-c2c3c(nc4ccnn24)COC3)cc1 (centres unmarked) [8-{4-[3-(2-Methyl-pyrrolidin-1-yl)-propoxy]-phenyl}-5H,7H-6-oxa-1,4,8a-triaza-s-indacene] | < 50 nM | < 50 nM
c1cc2nc3c(c(-c4ccc5oc(CCN6CCOCC6)cc5c4)n2n1)CCCC3 [9-[2-(2-Morpholin-4-yl-ethyl)-benzofuran-5-yl]-5,6,7,8-tetrahydro-pyrazolo[5,1-b]quinazoline] | < 500 nM | < 50 nM
c1cc2nc3c(c(-c4ccc5oc(CCN6CCCCC6)cc5c4)n2n1)CCCC3 [9-[2-(2-Piperidin-1-yl-ethyl)-benzofuran-5-yl]-5,6,7,8-tetrahydro-pyrazolo[5,1-b]quinazoline] | < 5000 nM | < 50 nM
CC1CCCN1CCc1cc2cc(-c3c4c(nc5ccnn35)CCCC4)ccc2o1 (centres unmarked) [9-{2-[2-(2-Methyl-pyrrolidin-1-yl)-ethyl]-benzofuran-5-yl}-5,6,7,8-tetrahydro-pyrazolo[5,1-b]quinazoline] | < 500 nM | < 50 nM
CCN(CC)CCCOc1cccc(-c2c3c(nc4ccnn24)CCCCC3)c1 [Diethyl-{3-[3-(6,7,8,9-tetrahydro-5H-1,4,10a-triaza-cyclohepta[f]inden-10-yl)-phenoxy]-propyl}-amine] | < 5000 nM | –
